Results as given in ChEMBL document CHEMBL1145706, “Illudinic acid, a novel illudane sesquiterpene antibiotic” (J Nat Prod, 1997).
≈ marks a conversion by molar mass, not a printed value. Calls of active or inactive are those of the source. The rule behind the calls is not given here.

Key:
P388 = assay: In vivo antitumor activity against mouse P388 cells assessed as increase in life span at 5 mg/kg, ip for 5 days; format: functional
[1] = Antitumor activity against human myeloid leukemia cells xenografted mouse at 3 mg/kg, iv for 14 days; format: functional, Leukemia cell
L1210 [2] = assay: Cytotoxicity against mouse L1210 cells by MTT assay; format: functional, cell-based
L1210 [3] = assay: Cytotoxicity against mouse L1210 cells assessed as cell viability by trypan blue assay; format: functional, cell-based
L1210 [4] = assay: Cytotoxicity against mouse L1210 cells assessed as cell lysis after 24 hrs by trypan blue assay; format: functional, cell-based
Staphylococcus aureus [5] = assay: Antimicrobial activity against methicillin-resistant Staphylococcus aureus COL MB5393; format: functional, organism-based
Staphylococcus aureus [6] = assay: Antimicrobial activity against Staphylococcus aureus MB108; format: functional
Proteus vulgaris = assay: Antimicrobial activity against Proteus vulgaris MB838; format: functional
Bacillus subtilis = assay: Antimicrobial activity against Bacillus subtilis MB964; format: functional
Pseudomonas aeruginosa = assay: Antimicrobial activity against Pseudomonas aeruginosa MB2824; format: functional
[7] = test system: Pectobacterium atrosepticum; assay: Antimicrobial activity against Erwinia atroseptica MB1159; format: functional
Escherichia coli = assay: Antimicrobial activity against Escherichia coli MB1418; format: functional
Enterococcus faecium = assay: Antimicrobial activity against Enterococcus faecium MB5572; format: functional

Structure (SMILES): CC1=C2C(=C[C@@](C)(CO)[C@@H]2O)C(=O)[C@](C)(O)C12CC2
- Activity (P388): inactive

Structure (SMILES): CC1=C2C(=O)C(C)(C)C=C2C(=O)[C@](C)(O)C12CC2 [DEHYDROILLUDIN M]
- Activity [1]: 75%

Structure (SMILES): CC1=C2CC(C)(C)C=C2C(=O)[C@](C)(O)C12CC2 [DEOXYILLUDIN M]
- Activity (P388; route intraperitoneal): 24%

Structure (SMILES): COc1cccc2c1C(=O)c1c(O)c3c(c(O)c1C2=O)C[C@@](O)(C(=O)CO)C[C@@H]3O[C@H]1C[C@H](N)[C@H](O)[C@H](C)O1 [DOXORUBICIN]
- IC50 (L1210 [2]): 0.2 µg/mL (≈ 0.368 µM)
- IC50 (L1210 [3]): < 0.1 µg/mL
- Activity (L1210 [4]): inactive
- IC50 (Staphylococcus aureus [5]): 16 µg/mL (≈ 29.4 µM)

Structure (SMILES): C=C1C(=O)C2=C(C[C@](C)(C(=O)O)C2)[C@](C)(O)C12CC2 [ILLUDINIC ACID]
- IC50 (L1210 [2]): 15 µg/mL (≈ 57.2 µM)
- MIC (Staphylococcus aureus [6]): 1 µg/mL (≈ 3.81 µM)
- MIC (Proteus vulgaris): > 125 µg/mL
- MIC (Bacillus subtilis): 16 µg/mL (≈ 61 µM)
- MIC (Pseudomonas aeruginosa): > 125 µg/mL
- MIC [7]: > 125 µg/mL
- MIC (Escherichia coli): 125 µg/mL (≈ 477 µM)
- IC50 (L1210 [3]): 10 µg/mL (≈ 38.1 µM)
- Activity (L1210 [4]): inactive
- MIC (Enterococcus faecium): > 125 µg/mL
- MIC (Staphylococcus aureus [5]): 16 µg/mL (≈ 61 µM)

Structure (SMILES): CN[C@H](CC(C)C)C(=O)N[C@H]1C(=O)N[C@@H](CC(N)=O)C(=O)N[C@H]2C(=O)N[C@H]3C(=O)N[C@H](C(=O)N[C@H](C(=O)O)c4cc(O)cc(O)c4-c4cc3ccc4O)[C@H](O)c3ccc(c(Cl)c3)Oc3cc2cc(c3O[C@@H]2O[C@H](CO)[C@@H](O)[C@H](O)[C@H]2O[C@H]2C[C@](C)(N)[C@H](O)[C@H](C)O2)Oc2ccc(cc2Cl)[C@H]1O [VANCOMYCIN]
- IC50 (L1210 [2]): > 1000 µg/mL
- IC50 (L1210 [3]): > 1000 µg/mL
- Activity (L1210 [4]): inactive
